Earlier results in patent US20190314298A1, “COMPOSITIONS FOR PREVENTING AND RELIEVING HANGOVER & LIVER DAMAGE WHICH OCCUR DUE TO ALCOHOL CONSUMPTION” (priority 2018, published 2019).

details: biological activities listed in background table

Row | Molecule | Activity
1 | COc1cc(/C=C/C(=O)CC(=O)/C=C/c2ccc([O-])c(OC)c2)ccc1[O-].[Na+].[Na+] [Sodium curcuminate] | anti-inflammatory
2 | Demethoxy curcumin | antioxidant
3 | COc1cc(/C=C/C(=O)/C=C(O)\C=C\c2ccc(OC)c(OC)c2)ccc1O [Methylcurcumin] | L. amazonensis
4 | O=C(C=Cc1ccc(O)cc1)CC(=O)C=Cc1ccc(O)cc1 [Bisdemethoxy curcumin] | antioxidant
5 | CC(C)=CC(=O)CC(C)c1ccc(C)cc1 (centres unmarked) [Ar-turmerone] | snakebite
